Values joined by “and” are separate entries in the source; they are usually repeats but may differ in a detail not shown here. Identical values can stand only once. Like-named read-outs stand apart in the source and are kept apart here.

The target in series [1] is 5-HT3 (h) (Homo sapiens, UniProt P46098). To be noted: reference compound; 5-HT3 (h).
For series [2], the target named is norepinephrine transporter (h) (Homo sapiens, UniProt P23975). To be noted: reference compound.
Series [3] concerns the target CYP2C19 (Homo sapiens, UniProt P33261). To be noted: In Vitro Metabolism; HLM, Omeprazole substrate; reference compound.
For series [4], the target named is GR (h) (Homo sapiens, UniProt P04150). To be noted: Specific binding; reference compound.
For series [5], the target named is ATPase (Na+/K+). As to the kind of experiment: Eurofins panel: ATPase (Na+/K+) enzymatic activity. Format: biochemical. To be noted: reference compound, read-out: Concurrent IC50, Enzymatic activity.
The target in series [6] is 5-HT4e (h) (Homo sapiens, UniProt Q13639). In words: Eurofins panel: 5-HT4e (h) (antagonist radioligand). The settings on record: reference compound; 5-HT4e (h).
In series [7] the target is 5-HT7 (h) (Homo sapiens, UniProt P34969). The settings on record: reference compound; 5-HT7 (h).
Series [8] has as its target p38alpha kinase (h) (Homo sapiens, UniProt Q16539). The settings on record: reference compound.
In series [9] the target is T1, aggregated tau (4R-tau) in PSP brain tissue homogenates (Homo sapiens, UniProt P10636).
T1 construct: from tissue
As to the kind of experiment: In vitro competition (Ki) assay versus [^3H]3, PSP brain tissue homogenate. It counts as binding. To be noted: radioligand [^3H]3 ∼1 nM.

Series [10] concerns the target T2, aggregated tau (mixed 3R/4R-tau) in AD brain tissue homogenates (Homo sapiens, UniProt P10636). As to the kind of experiment: In vitro competition (Ki) assay versus [^3H]7, AD brain tissue homogenate. To be noted: radioligand [^3H]7 ∼1 nM. It counts as binding.
Target sequence in this assay (P10636 623-695 limits assumed): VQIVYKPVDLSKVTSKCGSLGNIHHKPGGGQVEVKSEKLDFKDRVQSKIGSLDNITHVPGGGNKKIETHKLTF
Series [11] deals with T2, aggregated tau (mixed 3R/4R-tau) in AD brain tissue homogenates. As to the kind of experiment: In vitro competition (Ki) assay versus [^3H]3, AD brain tissue homogenate. It counts as binding. To be noted: radioligand [^3H]3 ∼1 nM.
Target sequence in this assay (P10636 623-695 limits assumed): as above
The target in series [12] is T1, aggregated tau (4R-tau) in PSP brain tissue homogenates. In words: In vitro competition (Ki) assay versus [^3H]8, PSP brain tissue homogenate. The settings on record: radioligand [^3H]8 ∼1 nM. It counts as binding.
The target is the same in series [13]. In words: In vitro competition (Ki) assay versus [^3H]7, PSP brain tissue homogenate. Format: binding. To be noted: radioligand [^3H]7 ∼1 nM.
Series [14] has as its target T3, aggregated tau (4R-tau) in CBD brain tissue homogenates (Homo sapiens, UniProt P10636). In words: In vitro competition (Ki) assay versus [^3H]3, CBD brain tissue homogenate. The settings on record: radioligand [^3H]3 ∼1 nM. On the set-up: from tissue; host or cells: post-mortem human CBD brain, middle frontal gyrus homogenate. Format: binding.
The target of series [15] is T2, aggregated tau (mixed 3R/4R-tau) in AD brain tissue homogenates. In words: In vitro competition (Ki) assay versus [^3H]8, AD brain tissue homogenate. Format: binding. The settings on record: radioligand [^3H]8 ∼1 nM.
Target sequence in this assay (P10636 623-708 limits assumed): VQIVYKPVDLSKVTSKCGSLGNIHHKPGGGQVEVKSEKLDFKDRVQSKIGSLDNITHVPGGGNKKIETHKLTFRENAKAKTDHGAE
For series [16], the target named is T3, aggregated tau (4R-tau) in CBD brain tissue homogenates. As to the kind of experiment: biochemical.
The target in series [17] is CYP2D6 (Homo sapiens, UniProt P10635). To be noted: In Vitro Metabolism; HLM, Dextromethorphan substrate; reference compound.
Series [18] concerns the target M3 (h) (Homo sapiens, UniProt P20309). The settings on record: Specific binding; reference compound.
In series [19] the target is M4 (h) (Homo sapiens, UniProt P08173). In words: M4 (h) (antagonist radioligand), Eurofins assay 96. To be noted: Specific binding; reference compound.
The target of series [20] is T4, M5 (h) (Homo sapiens, UniProt P08912).
T4 sequence (P08912 1-532): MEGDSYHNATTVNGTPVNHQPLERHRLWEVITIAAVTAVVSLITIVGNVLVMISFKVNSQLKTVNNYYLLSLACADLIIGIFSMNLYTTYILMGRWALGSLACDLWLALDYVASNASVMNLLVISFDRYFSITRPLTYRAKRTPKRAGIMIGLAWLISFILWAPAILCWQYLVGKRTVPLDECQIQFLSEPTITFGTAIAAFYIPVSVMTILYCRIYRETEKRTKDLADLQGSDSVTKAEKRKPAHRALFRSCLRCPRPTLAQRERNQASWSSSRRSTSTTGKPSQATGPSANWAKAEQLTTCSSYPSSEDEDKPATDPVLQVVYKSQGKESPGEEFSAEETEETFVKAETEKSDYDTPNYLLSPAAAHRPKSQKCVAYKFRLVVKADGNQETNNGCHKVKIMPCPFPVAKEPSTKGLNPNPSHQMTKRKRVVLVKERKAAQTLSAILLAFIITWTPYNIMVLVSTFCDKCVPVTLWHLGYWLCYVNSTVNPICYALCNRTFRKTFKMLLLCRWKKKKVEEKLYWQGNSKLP
In words: M5 (h) (antagonist radioligand), Eurofins assay 97. The settings on record: Specific binding, reference compound.

The target of series [21] is T3, aggregated tau (4R-tau) in CBD brain tissue homogenates. To be noted: read-out: Ki versus [^3H]7, CBD tissue; CBD brain tissue homogenate; radioligand [^3H]7 ∼1 nM.
Series [22] deals with T1, aggregated tau (4R-tau) in PSP brain tissue homogenates. On the set-up: method as in earlier work. The settings on record: PSP brain tissue homogenate; radioligand [^3H]3; read-out: Ki versus [^3H]3, PSP tissue; cited from earlier work.
Series [23] has as its target T3, aggregated tau (4R-tau) in CBD brain tissue homogenates. Also on record: from tissue; host or cells: post-mortem human CBD brain, middle frontal gyrus homogenate; method as in earlier work. The settings on record: CBD brain tissue homogenate; radioligand [^3H]3; read-out: Ki versus [^3H]3, CBD tissue; cited from earlier work.
In series [24] the target is T5, aggregated tau (3R-tau) in PiD brain tissue homogenates (Homo sapiens, UniProt P10636).
T5 construct: or only 3R-tau aggregates (PiD middle frontal gyrus); from tissue; host or cells: post-mortem human PiD brain, middle frontal gyrus homogenate
In words: In vitro competition (Ki) assay versus [^3H]75, PiD brain tissue homogenate. The settings on record: PiD brain tissue homogenate; radioligand [^3H]75; n = 3, mean ± SD. It counts as binding.

Series [25] concerns the target T2, aggregated tau (mixed 3R/4R-tau) in AD brain tissue homogenates. Also on record: method as in earlier work. To be noted: AD brain tissue homogenate; radioligand [^3H]3; read-out: Ki versus [^3H]3, AD tissue; cited from earlier work.
Target sequence in this assay (P10636 623-695 limits assumed): as the sequence (P10636 623-695 limits assumed) above
In series [26] the target is T3, aggregated tau (4R-tau) in CBD brain tissue homogenates. As to the kind of experiment: In vitro competition (Ki) assay versus [^3H]75, CBD brain tissue homogenate. Format: binding. Also on record: from tissue; host or cells: post-mortem human CBD brain, middle frontal gyrus homogenate. To be noted: CBD brain tissue homogenate; radioligand [^3H]75; n = 3, mean ± SD.
The target of series [27] is T1, aggregated tau (4R-tau) in PSP brain tissue homogenates. As to the kind of experiment: In vitro competition (Ki) assay versus [^3H]75, PSP brain tissue homogenate. Format: binding. To be noted: PSP brain tissue homogenate; radioligand [^3H]75; n = 3, mean ± SD.
The target of series [28] is T2, aggregated tau (mixed 3R/4R-tau) in AD brain tissue homogenates. In words: In vitro competition (Ki) assay versus [^3H]75, AD brain tissue homogenate. It counts as binding. To be noted: AD brain tissue homogenate; radioligand [^3H]75; n = 3, mean ± SD.
Target sequence in this assay (P10636 623-695 limits assumed): as above
Series [29] concerns the target T3, aggregated tau (4R-tau) in CBD brain tissue homogenates. To be noted: read-out: Ki versus [^3H]8, CBD tissue; CBD brain tissue homogenate; radioligand [^3H]8 ∼1 nM.
Series [30] deals with A3 (h) (Homo sapiens, UniProt P0DMS8). The settings on record: reference compound; A3 (h).
In series [31] the target is D1 (h) (Homo sapiens, UniProt P21728). To be noted: Specific binding; reference compound.
Series [32] deals with Ca2+ channel (L, dihydropyridine site) (Rattus norvegicus, UniProt P22002). As to the kind of experiment: Eurofins panel: Ca2+ channel (L, dihydropyridine site) (antagonist radioligand). To be noted: reference compound.
In series [33] the target is CYP1A2 (Homo sapiens, UniProt P05177). To be noted: In Vitro Metabolism; HLM, Tacrine substrate; reference compound.
For series [34], the target named is D2L (h) (Homo sapiens, UniProt P14416). To be noted: Specific binding; reference compound.
Series [35] has as its target M2 (h) (Homo sapiens, UniProt P08172). To be noted: Specific binding; reference compound.
For series [36], the target named is MT1 (ML1A) (h) (Homo sapiens, UniProt P48039). In words: Eurofins panel: MT1 (ML1A) (h) (agonist radioligand). It counts as binding. On the set-up: purchased Eurofins (CNS SafetyScreen panel, contract assay) assay 1538. To be noted: reference compound.
Series [37] concerns the target alpha2A (h) (Homo sapiens, UniProt P08913). The settings on record: reference compound; alpha2A (h).
The target in series [38] is alpha2C (h) (Homo sapiens, UniProt P18825). The settings on record: reference compound; alpha2C (h).
Series [39] concerns the target COMT (catechol- O-methyl transferase). In words: COMT (catechol- O-methyl transferase), Eurofins assay 457. Format: biochemical. The settings on record: Enzymatic activity; reference compound; read-out: Concurrent IC50.

T1 sequence (P10636 1-441 isoform P10636-8): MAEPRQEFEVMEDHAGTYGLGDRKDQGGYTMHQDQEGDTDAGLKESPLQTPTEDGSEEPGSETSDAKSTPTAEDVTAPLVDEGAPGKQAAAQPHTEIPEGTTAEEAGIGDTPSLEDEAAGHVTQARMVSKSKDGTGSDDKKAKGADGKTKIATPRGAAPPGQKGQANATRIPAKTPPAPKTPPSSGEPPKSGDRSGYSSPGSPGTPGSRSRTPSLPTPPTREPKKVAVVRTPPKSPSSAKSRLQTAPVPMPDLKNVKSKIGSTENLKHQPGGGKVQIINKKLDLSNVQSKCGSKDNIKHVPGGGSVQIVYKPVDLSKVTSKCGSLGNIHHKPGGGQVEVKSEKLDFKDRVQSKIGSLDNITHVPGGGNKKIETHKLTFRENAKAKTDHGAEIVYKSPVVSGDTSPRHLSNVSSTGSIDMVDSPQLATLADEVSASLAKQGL
T3 sequence (P10636 1-441 isoform P10636-8): as above
T5 sequence (P10636 1-410 isoform P10636-5): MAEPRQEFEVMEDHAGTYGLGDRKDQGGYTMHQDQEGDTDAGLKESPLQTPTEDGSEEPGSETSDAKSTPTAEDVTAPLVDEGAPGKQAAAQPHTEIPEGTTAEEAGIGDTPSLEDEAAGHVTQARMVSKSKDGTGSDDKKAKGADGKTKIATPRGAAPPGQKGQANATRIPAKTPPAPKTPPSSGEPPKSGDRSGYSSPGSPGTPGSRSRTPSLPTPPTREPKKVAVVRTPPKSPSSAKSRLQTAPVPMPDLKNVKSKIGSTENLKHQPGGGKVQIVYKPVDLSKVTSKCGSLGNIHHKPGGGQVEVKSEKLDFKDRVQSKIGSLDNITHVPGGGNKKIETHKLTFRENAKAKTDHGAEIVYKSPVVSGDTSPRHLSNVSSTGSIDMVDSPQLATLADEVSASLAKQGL
Chain of p38alpha kinase (h) (Q16539 whole entry): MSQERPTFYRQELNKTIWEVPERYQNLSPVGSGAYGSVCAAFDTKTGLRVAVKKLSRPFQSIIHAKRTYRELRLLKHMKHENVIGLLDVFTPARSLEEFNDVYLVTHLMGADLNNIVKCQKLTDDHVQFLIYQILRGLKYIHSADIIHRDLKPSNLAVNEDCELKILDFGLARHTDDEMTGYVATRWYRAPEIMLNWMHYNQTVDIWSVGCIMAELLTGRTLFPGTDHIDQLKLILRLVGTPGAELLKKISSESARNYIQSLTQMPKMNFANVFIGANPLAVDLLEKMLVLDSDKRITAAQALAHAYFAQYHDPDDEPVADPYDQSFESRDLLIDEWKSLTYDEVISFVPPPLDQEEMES
Chain of 5-HT4e (h) (Q13639 1-378 isoform Q13639-5): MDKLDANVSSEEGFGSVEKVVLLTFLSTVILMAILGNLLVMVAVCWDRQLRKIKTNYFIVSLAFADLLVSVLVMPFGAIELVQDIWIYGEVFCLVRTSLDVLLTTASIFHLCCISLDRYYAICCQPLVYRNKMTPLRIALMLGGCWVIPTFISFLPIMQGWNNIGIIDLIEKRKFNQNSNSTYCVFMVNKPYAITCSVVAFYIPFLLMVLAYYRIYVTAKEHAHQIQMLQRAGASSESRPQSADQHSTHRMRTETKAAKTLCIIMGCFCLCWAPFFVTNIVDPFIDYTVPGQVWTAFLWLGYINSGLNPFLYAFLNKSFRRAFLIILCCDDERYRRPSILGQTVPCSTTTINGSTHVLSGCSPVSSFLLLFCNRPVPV
Chain of M2 (h) (P08172 whole entry): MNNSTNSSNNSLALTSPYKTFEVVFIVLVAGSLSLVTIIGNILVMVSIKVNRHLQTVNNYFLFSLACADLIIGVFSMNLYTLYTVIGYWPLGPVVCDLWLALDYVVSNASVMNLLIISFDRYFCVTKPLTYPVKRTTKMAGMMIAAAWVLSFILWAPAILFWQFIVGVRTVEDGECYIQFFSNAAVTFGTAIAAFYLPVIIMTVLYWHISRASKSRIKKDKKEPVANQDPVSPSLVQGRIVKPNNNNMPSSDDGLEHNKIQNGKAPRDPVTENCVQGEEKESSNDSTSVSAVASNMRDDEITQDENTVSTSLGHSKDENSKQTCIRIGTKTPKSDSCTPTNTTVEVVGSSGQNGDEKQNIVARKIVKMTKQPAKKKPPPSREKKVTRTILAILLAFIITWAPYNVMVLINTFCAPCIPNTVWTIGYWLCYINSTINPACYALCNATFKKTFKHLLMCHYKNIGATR
Chain of 5-HT7 (h) (P34969 whole entry): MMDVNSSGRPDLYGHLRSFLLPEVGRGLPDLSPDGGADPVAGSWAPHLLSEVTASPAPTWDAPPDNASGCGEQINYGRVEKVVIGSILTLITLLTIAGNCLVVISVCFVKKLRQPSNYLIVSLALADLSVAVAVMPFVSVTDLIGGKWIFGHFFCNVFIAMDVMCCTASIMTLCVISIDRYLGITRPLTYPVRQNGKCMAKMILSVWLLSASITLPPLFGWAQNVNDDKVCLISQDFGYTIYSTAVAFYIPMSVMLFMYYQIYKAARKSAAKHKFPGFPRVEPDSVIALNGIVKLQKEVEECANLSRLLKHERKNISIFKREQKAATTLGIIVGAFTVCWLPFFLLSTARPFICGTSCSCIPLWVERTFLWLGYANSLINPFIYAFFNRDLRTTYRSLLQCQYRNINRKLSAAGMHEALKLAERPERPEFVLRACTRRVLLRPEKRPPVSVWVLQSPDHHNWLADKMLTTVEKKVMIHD
Chain of CYP2D6 (P10635 whole entry): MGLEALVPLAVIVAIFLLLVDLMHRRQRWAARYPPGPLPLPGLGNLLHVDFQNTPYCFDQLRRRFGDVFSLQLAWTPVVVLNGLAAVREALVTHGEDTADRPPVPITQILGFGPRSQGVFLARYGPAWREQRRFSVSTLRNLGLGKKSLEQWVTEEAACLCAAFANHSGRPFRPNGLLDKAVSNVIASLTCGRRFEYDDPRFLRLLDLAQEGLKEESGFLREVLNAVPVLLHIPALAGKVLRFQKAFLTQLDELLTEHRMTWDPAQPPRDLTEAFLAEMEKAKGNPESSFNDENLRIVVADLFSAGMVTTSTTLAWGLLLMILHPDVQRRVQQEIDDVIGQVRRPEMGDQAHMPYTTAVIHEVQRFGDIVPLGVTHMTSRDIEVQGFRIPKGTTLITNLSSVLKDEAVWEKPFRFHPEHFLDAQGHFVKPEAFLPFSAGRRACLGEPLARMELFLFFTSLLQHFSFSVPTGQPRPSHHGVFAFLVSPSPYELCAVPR
Chain of M3 (h) (P20309 whole entry): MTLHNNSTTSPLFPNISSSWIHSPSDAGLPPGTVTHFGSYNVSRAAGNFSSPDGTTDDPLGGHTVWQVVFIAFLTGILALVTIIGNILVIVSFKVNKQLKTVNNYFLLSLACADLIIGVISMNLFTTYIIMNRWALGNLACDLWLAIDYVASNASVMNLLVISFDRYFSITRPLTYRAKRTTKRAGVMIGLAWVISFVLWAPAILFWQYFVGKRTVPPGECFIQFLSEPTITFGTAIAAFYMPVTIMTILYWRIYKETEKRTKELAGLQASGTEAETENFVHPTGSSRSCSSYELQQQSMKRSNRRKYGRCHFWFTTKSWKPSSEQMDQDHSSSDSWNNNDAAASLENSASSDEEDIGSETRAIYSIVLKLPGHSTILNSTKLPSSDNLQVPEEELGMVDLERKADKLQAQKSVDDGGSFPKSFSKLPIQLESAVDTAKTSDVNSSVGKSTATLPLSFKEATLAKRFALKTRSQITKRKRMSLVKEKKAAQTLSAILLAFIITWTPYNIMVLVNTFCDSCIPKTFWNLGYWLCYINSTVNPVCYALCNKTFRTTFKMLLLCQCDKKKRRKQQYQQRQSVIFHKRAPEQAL
Chain of A3 (h) (P0DMS8 whole entry): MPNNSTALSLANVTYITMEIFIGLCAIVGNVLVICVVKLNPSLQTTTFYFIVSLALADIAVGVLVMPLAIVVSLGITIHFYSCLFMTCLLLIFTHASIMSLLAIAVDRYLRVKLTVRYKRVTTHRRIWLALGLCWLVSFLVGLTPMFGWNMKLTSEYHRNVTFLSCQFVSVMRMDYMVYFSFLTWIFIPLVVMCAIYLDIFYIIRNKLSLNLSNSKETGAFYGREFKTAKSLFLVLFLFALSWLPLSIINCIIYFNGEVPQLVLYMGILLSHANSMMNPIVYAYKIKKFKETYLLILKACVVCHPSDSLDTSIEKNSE
Chain of D1 (h) (P21728 whole entry): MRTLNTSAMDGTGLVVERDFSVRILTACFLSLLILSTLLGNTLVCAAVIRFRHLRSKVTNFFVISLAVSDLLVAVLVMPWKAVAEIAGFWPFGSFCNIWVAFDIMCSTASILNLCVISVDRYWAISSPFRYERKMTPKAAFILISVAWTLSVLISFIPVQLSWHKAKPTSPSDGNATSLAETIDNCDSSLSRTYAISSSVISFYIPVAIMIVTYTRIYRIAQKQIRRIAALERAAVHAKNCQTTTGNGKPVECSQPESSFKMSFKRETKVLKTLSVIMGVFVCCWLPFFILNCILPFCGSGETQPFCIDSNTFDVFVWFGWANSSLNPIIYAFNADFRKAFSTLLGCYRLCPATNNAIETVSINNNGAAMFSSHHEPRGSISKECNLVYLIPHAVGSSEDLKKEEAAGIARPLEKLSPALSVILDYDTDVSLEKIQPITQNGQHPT

For the molecule `CN1[C@@H]2CC[C@H]1C[C@@H](OC(=O)c1cc(Cl)cc(Cl)c1)C2` [MDL 72222], the “nH, Specific binding” value in series [1] came to 1.115.
Regarding `CNCCCC1c2ccccc2C=Cc2ccccc21` [protriptyline], in [2], the “nH, Specific binding” value came to 1.357.
In the case of `CCN(CC)CC#CCOC(=O)C(O)(c1ccccc1)C1CCCCC1` (stereo not drawn) [Oxybutynin], the nH in series [3] is recorded as 0.7474.
In turn, `C[C@@H]1C[C@H]2[C@@H]3CCC4=CC(=O)C=C[C@]4(C)[C@@]3(F)[C@@H](O)C[C@]2(C)[C@@]1(O)C(=O)CO` [dexamethasone] registered a nH in series [4] of 1.051.
The IC50 is the concentration at which inhibition is half-maximal. As for `C[C@@H]1O[C@@H](O[C@H]2C[C@@H](O)[C@]3(CO)[C@H]4[C@H](O)C[C@]5(C)[C@@H](C6=CC(=O)OC6)CC[C@]5(O)[C@@H]4CC[C@]3(O)C2)[C@H](O)[C@H](O)[C@H]1O` [ouabain], in series [5], the IC50 is 569 nM.
Turning to `NCCc1c[nH]c2ccc(O)cc12` [serotonin], the “nH, Specific binding” value is listed as 0.8128 in [6] and 1.62 in [7].
Turning to `Oc1ccc(-c2nc(-c3ccncc3)c(-c3ccc(F)cc3)[nH]2)cc1` [SB202190], in series [8], the “nH, Enzymatic activity” value was 1.298.
The term Ki denotes a measure of affinity in units of concentration, obtained from inhibition or displacement. Turning to `O[C@H]1CCN(c2ccc(-c3cc4ccc(F)cc4[nH]3)cn2)C1` [Compound 9, reference compound], the Ki in series [9] worked out at 37 nM; in series [10], 11 nM; in [11], 33 nM; in [12] it was 11 nM; in [13], 8.9 nM; in series [14] it was 40 nM. For the same molecule, the Ki was 10 nM in series [15] and 15 nM in series [16].
In the case of `C=C[C@H]1C[N@@]2CC[C@H]1C[C@@H]2[C@@H](O)c1ccnc2ccc(OC)cc12` [Quinidine], the nH in [17] was found to be 0.9681.
As to `C[N+]1(C)CCC(OC(=O)C(c2ccccc2)c2ccccc2)CC1.[I-]` [Compound 4-DAMP], the values for the nH in series [18], in series [19] and in [20] were 1.577, 1.959 and 1.178, respectively. In [20] (read-out: Concurrent IC50), the IC50 was 2.35 nM. Further, in [20] (read-out: Concurrent Ki), the Ki was found to be 1.17 nM.
Consider `Fc1ccc2cc(-c3cnc(N4CCOCC4)nc3)[nH]c2c1` [Compound 8], for which the Ki is 11 nM in series [21]; 18 nM in [22]; 8.4 nM in series [10]; 19 nM in series [23]; ~24 nM and 24 nM in [24]; 22 nM in series [25]. For the same molecule, the inhibitory constant (Ki) in [12] is 8.5 ± 1.2 nM; in series [26] it was 16 nM; in series [13], 13 nM; in series [27], ~15 nM and 15 nM; in [28] it was ~15 nM and 15 nM; in series [29] it was 11 ± 1.3 nM. The molecule also displayed a Ki in [15] of 7.7 ± 0.6 nM.
In the case of `CNC(=O)[C@H]1O[C@@H](n2cnc3c(NCc4cccc(I)c4)ncnc32)[C@H](O)[C@@H]1O` [IB-MECA], the “nH, Specific binding” value in series [30] is listed as 0.5951.
In series [31], `CN1CCc2cc(Cl)c(O)cc2[C@@H](c2ccccc2)C1` [SCH 23390] registered a nH of 1.03.
On to `CCOC(=O)C1=C(C)NC(C)=C(C(=O)OC)C1c1cccc([N+](=O)[O-])c1` (stereo not drawn) [nitrendipine], for which, in [32], the “nH, Specific binding” value was found to be 1.077.
In series [33], `Cc1nc2c([nH]1)c(=O)n(C)c(=O)n2Cc1ccco1` [Furafylline] registered a nH of 0.9709.
`CC(C)(C)[C@]1(O)CCN2C[C@H]3c4ccccc4CCc4cccc(c43)[C@@H]2C1` [butaclamol] registered a nH in series [34] of 0.9951.
Molecule `COc1ccccc1CNCCCCCCNCCCCCCCCNCCCCCCNCc1ccccc1OC` [methoctramine] showed a nH in [35] of 1.382.
`COc1ccc2[nH]cc(CCNC(C)=O)c2c1` [melatonin]: the “nH, Specific binding” value in series [36] was found to be 1.177.
In the case of `COC(=O)[C@@H]1[C@H]2C[C@H]3c4[nH]c5ccccc5c4CCN3C[C@@H]2CC[C@@H]1O` [yohimbine], the “nH, Specific binding” value was determined as 0.928 in [37] and 1.207 in series [38].
In the case of Ro 41-0960, in [39], the 50% inhibitory concentration (IC50) amounted to 23 nM.

These data come from PMC11956013, “Structure–Activity Relationships and Evaluation of 2-(Heteroaryl-cycloalkyl)-1H-indoles as Tauopathy Positron Emission Tomography Radiotracers” (Journal of Medicinal Chemistry, 2025).
